From patent US9150577B2, “Heterocyclic compounds containing an indole core” (Boehringer Ingelheim International GmbH, priority 2009, dated 2015) come the findings set out here.

The structures appear in SMILES notation.

In the test the target is Human RSK2 (Homo sapiens (Human), UniProt P51812). The test is described as follows: Human RSK2 assay (Kinase Glo Plus, residual ATP).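 Also: recombinant human RSK2 phosphorylating a substrate peptide, 90 min at 28 °C, leftover ATP read by luminescence, RLU scaled between no-kinase background and uninhibited kinase controls, 4-parameter fit.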 It counts as biochemical. (In general: Kinase-Glo reads ATP consumption through a luciferase reaction.)
Sequence of Human RSK2 (P51812 whole entry): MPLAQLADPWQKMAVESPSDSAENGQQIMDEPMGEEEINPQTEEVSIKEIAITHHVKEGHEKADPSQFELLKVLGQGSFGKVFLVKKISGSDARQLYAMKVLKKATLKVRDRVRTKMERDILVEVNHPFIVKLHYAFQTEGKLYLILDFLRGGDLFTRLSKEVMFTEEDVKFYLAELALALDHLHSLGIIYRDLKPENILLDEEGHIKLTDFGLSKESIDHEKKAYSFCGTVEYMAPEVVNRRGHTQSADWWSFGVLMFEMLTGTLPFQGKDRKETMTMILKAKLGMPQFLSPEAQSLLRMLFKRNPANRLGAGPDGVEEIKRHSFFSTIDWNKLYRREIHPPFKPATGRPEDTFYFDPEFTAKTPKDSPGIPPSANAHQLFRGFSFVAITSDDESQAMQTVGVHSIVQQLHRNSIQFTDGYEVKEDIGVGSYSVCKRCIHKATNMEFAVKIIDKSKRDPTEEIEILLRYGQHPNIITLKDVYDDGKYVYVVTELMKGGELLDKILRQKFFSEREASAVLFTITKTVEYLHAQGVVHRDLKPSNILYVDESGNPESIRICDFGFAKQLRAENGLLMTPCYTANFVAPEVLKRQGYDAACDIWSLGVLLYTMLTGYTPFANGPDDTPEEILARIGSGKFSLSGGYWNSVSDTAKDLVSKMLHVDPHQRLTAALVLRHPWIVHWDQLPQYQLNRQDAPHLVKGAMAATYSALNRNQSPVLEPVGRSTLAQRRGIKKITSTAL
The term IC50 denotes the concentration that gives 50% inhibition. In the case of `O=C(Nc1ccc2ccccc2n1)c1ccc2cc3n(c2c1)CCCNC3=O` [Example 5, 1-oxo-N-(quinolin-2-yl)-2,3,4,5-tetrahydro-1H-[1,4]diazepino[1,2-a]indole-8-carboxamide], the IC50 came to 70 nM. The value for `O=C(Nc1nc2cc(F)ccc2[nH]1)c1ccc2cc3n(c2c1)CCCNC3=O` [Example 51, N-(5-fluoro-1H-benzimidazol-2-yl)-1-oxo-2,3,4,5-tetrahydro-1H-[1,4]diazepino[1,2-a]indole-8-carboxamide] was 5.2 nM; that for `COc1cc(NC(=O)c2ccc3cc4n(c3c2)CCCNC4=O)ccn1` [Example 204, N-(2-methoxypyridin-4-yl)-1-oxo-2,3,4,5-tetrahydro-1H-[1,4]diazepino[1,2-a]indole-8-carboxamide] was 17 nM. Turning to `Cc1cc(NC(=O)c2ccc3cc4n(c3c2)CC(C)(C)CNC4=O)no1` [Example 157, 4,4-dimethyl-N-(5-methyl-1,2-oxazol-3-yl)-1-oxo-2,3,4,5-tetrahydro-1H-[1,4]diazepino[1,2-a]indole-8-carboxamide], the IC50 is 1800 nM. As to `CC1(C)CNC(=O)c2cc3ccc(C(=O)Nc4nc5ccccc5[nH]4)cc3n21` [Example 56, N-(1H-benzimidazol-2-yl)-4,4-dimethyl-1-oxo-1,2,3,4-tetrahydropyrazino[1,2-a]indole-7-carboxamide], the IC50 was determined as 0.89 nM. The figure for `CC1CCNC(=O)c2cc3ccc(C(=O)Nc4cn(C)c(C(=O)NC5CCCC5)n4)cc3n21` (stereo not drawn) [Example 234, N-[2-(cyclopentylcarbamoyl)-1-methyl-1H-imidazol-4-yl]-5-methyl-1-oxo-2,3,4,5-tetrahydro-1H-[1,4]diazepino[1,2-a]indole-8-carboxamide] is 2.1 nM. In the case of `C[C@@H]1CNC(=O)c2cc3ccc(C(=O)Nc4cnn(Cc5ccccc5)c4)cc3n21` [Example 130, (4R)-N-(1-benzyl-1H-pyrazol-4-yl)-4-methyl-1-oxo-1,2,3,4-tetrahydropyrazino[1,2-a]indole-7-carboxamide], the 50% inhibitory concentration (IC50) was determined as 0.6 nM. Take `CC(C)c1ccc2[nH]c(NC(=O)c3ccc4cc5n(c4c3)CCCNC5=O)nc2c1` [Example 42, 1-oxo-N-[5-(propan-2-yl)-1H-benzimidazol-2-yl]-2,3,4,5-tetrahydro-1H-[1,4]diazepino[1,2-a]indole-8-carboxamide]: the 50% inhibitory concentration (IC50) is 6.2 nM. For the molecule `CC(C)n1cc(NC(=O)c2ccc3cc4n(c3c2)CCCNC4=O)cn1` [Example 25, 1-oxo-N-[1-(propan-2-yl)-1H-pyrazol-4-yl]-2,3,4,5-tetrahydro-1H-[1,4]diazepino[1,2-a]indole-8-carboxamide], the IC50 is 14 nM.

Turning to `CN(C)CCCn1c(NC(=O)c2ccc3cc4n(c3c2)CC2(CCNCC2)CNC4=O)nc2ccccc21` [Example 236, N-{1-[3-(dimethylamino)propyl]-1H-benzimidazol-2-yl}-1-oxo-2,3-dihydro-1H-spiro[1,4-diazepino[1,2-a]indole-4,4′-piperidine]-8-carboxamide], the IC50 stood at 540 nM. As to `Cc1ccc(-c2cccc(NC(=O)c3ccc4cc5n(c4c3)CCCNC5=O)c2)s1` [Example 228, N-[3-(5-methylthiophen-2-yl)phenyl]-1-oxo-2,3,4,5-tetrahydro-1H-[1,4]diazepino[1,2-a]indole-8-carboxamide], the IC50 stood at 4100 nM. With `CC1CNC(=O)c2cc3ccc(C(=O)Nc4nc5ccccc5n4CCCN(C)C)cc3n2C1` (stereo not drawn) [Example 101, N-{1-[3-(dimethylamino)propyl]-1H-benzimidazol-2-yl}-4-methyl-1-oxo-2,3,4,5-tetrahydro-1H-[1,4]diazepino[1,2-a]indole-8-carboxamide], the 50% inhibitory concentration (IC50) stood at 13 nM.

Regarding `CC1(c2cc(NC(=O)c3ccc4cc5n(c4c3)CCCNC5=O)on2)CC1` [Example 197, N-[3-(1-methylcyclopropyl)-1,2-oxazol-5-yl]-1-oxo-2,3,4,5-tetrahydro-1H-[1,4]diazepino[1,2-a]indole-8-carboxamide], the 50% inhibitory concentration (IC50) came to 27 nM. The value for `O=C(Nc1cccc(-c2cc[nH]n2)c1)c1ccc2cc3n(c2c1)CCCNC3=O` [Example 227, 1-oxo-N-[3-(1H-pyrazol-3-yl)phenyl]-2,3,4,5-tetrahydro-1H-[1,4]diazepino[1,2-a]indole-8-carboxamide] was 41 nM.

With `O=C(Nc1cc[nH]n1)c1ccc2cc3n(c2c1)CCCNC3=O` [Example 220, 1-oxo-N-(1H-pyrazol-3-yl)-2,3,4,5-tetrahydro-1H-[1,4]diazepino[1,2-a]indole-8-carboxamide], the IC50 was determined as 93 nM. For `Cn1c(NC(=O)c2ccc3cc4n(c3c2)C(C)(C)CNC4=O)nc2ccccc21` [Example 59, 4,4-dimethyl-N-(1-methyl-1H-benzimidazol-2-yl)-1-oxo-1,2,3,4-tetrahydropyrazino[1,2-a]indole-7-carboxamide], the IC50 stood at 0.62 nM.

Take `Cc1cc(NC(=O)c2ccc3cc4n(c3c2)[C@H](C)CNC4=O)no1` [Example 128, (4R)-4-methyl-N-(5-methyl-1,2-oxazol-3-yl)-1-oxo-1,2,3,4-tetrahydropyrazino[1,2-a]indole-7-carboxamide]: the 50% inhibitory concentration (IC50) was 6.6 nM. The value for `CC(C)(C)c1nnc(NC(=O)c2ccc3cc4n(c3c2)CCCNC4=O)s1` [Example 110, N-(5-tert-butyl-1,3,4-thiadiazol-2-yl)-1-oxo-2,3,4,5-tetrahydro-1H-[1,4]diazepino[1,2-a]indole-8-carboxamide] was 96 nM. Turning to `CC1CNC(=O)c2cc3ccc(C(=O)Nc4cnn(Cc5ccccc5)c4)cc3n2C1` (stereo not drawn) [Example 135, N-(1-benzyl-1H-pyrazol-4-yl)-4-methyl-1-oxo-2,3,4,5-tetrahydro-1H-[1,4]diazepino[1,2-a]indole-8-carboxamide], the IC50 was 7.6 nM. On to `O=C(Nc1cnn(Cc2ccccc2)c1)c1ccc2cc3n(c2c1)CCCNC3=O` [Example 32, N-(1-benzyl-1H-pyrazol-4-yl)-1-oxo-2,3,4,5-tetrahydro-1H-[1,4]diazepino[1,2-a]indole-8-carboxamide], for which the IC50 was 4 nM.

As for `CC(C)(C)n1c(NC(=O)c2ccc3cc4n(c3c2)CCCNC4=O)nc2ccccc21` [Example 65, N-(1-tert-butyl-1H-benzimidazol-2-yl)-1-oxo-2,3,4,5-tetrahydro-1H-[1,4]diazepino[1,2-a]indole-8-carboxamide], the IC50 amounted to 19 nM.

In the case of `C[C@H]1CNC(=O)c2cc3ccc(C(=O)Nc4nc5ccccc5n4CCCN(C)C)cc3n2[C@H]1C` (relative stereo) [Example 92, N-{1-[3-(dimethylamino)propyl]-1H-benzimidazol-2-yl}-cis-4,5-dimethyl-1-oxo-2,3,4,5-tetrahydro-1H-[1,4]diazepino[1,2-a]indole-8-carboxamide], the half-maximal inhibitory concentration (IC50) turned out to be 2 nM. `CC(C)n1c(NC(=O)c2ccc3cc4n(c3c2)[C@@H](C)[C@@H](C)NC4=O)nc2ccccc21` (relative stereo) [Example 67, cis-3,4-dimethyl-1-oxo-N-[1-(propan-2-yl)-1H-benzimidazol-2-yl]-1,2,3,4-tetrahydropyrazino[1,2-a]indole-7-carboxamide]: the IC50 amounted to 3.4 nM. For `CN1CCC(Cn2c(NC(=O)c3ccc4cc5n(c4c3)CCCNC5=O)nc3ccccc32)CC1` [Example 88, N-{1-[(1-methylpiperidin-4-yl)methyl]-1H-benzimidazol-2-yl}-1-oxo-2,3,4,5-tetrahydro-1H-[1,4]diazepino[1,2-a]indole-8-carboxamide], the half-maximal inhibitory concentration (IC50) worked out at 21 nM.
